PubChem BioAssay AID248 (DTP/NCI, 2004)
“And” between values parts separate entries of the source, which are not always exact repeats. Equal values may be shown once. Inconclusive results and toxic doses are left out. No stated cut-off is given here; in the data, active means T/C of 150% or more; inactive means T/C below 125%.

Test system: L1210 leukemia ip in BDF1 mice, survival T/C
Assay: NCI In Vivo Anticancer Drug Screen. Data for tumor model L1210 Leukemia (intraperitoneal) in B6D2F1 (BDF1) mice
Settings: endpoint: mean survival time, higher = longer survival
Outline: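 Each compound was tested against a transplantable tumor grown in mice. The endpoint was survival, with treated animals benchmarked against vehicle controls as a simple ratio.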

[1] = dose: 50.0 mg/kg/injection, schedule: Q01DX001 (ip), vehicle: saline
[2] = dose: 100.0 mg/kg/injection, schedule: Q01DX001 (ip), vehicle: saline
[3] = dose: 200.0 mg/kg/injection, schedule: Q01DX001 (ip), vehicle: saline
[4] = dose: 400.0 mg/kg/injection, schedule: Q01DX001 (ip), vehicle: saline
[5] = dose: 100.0 mg/kg/injection, schedule: Q04DX003 (ip), vehicle: saline with Tween-80
[6] = dose: 200.0 mg/kg/injection, schedule: Q04DX003 (ip), vehicle: saline with Tween-80
[7] = dose: 400.0 mg/kg/injection, schedule: Q04DX003 (ip), vehicle: saline with Tween-80
[8] = dose: 100.0 mg/kg/injection, schedule: Q01DX009 (ip), vehicle: Klucel (hydroxypropylcellulose) (HPC)
[9] = dose: 200.0 mg/kg/injection, schedule: Q01DX009 (ip), vehicle: Klucel (hydroxypropylcellulose) (HPC)
[10] = dose: 400.0 mg/kg/injection, schedule: Q01DX009 (ip), vehicle: Klucel (hydroxypropylcellulose) (HPC)
[11] = dose: 100.0 mg/kg/injection, schedule: Q04DX003 (ip), vehicle: Klucel (hydroxypropylcellulose) (HPC)

Measured: T/C

CCCC/C=C/C1C=CCCC1 (stereo unspecified)
inactive: dose: 50.0 mg/kg/injection, schedule: Q01DX009 (ip), vehicle: other 100 % of control | dose: 100.0 mg/kg/injection, schedule: Q01DX009 (ip), vehicle: other 95 % of control | dose: 200.0 mg/kg/injection, schedule: Q01DX009 (ip), vehicle: other 100 % of control

Cc1ccc(CCn2cnc3c(=S)nc[nH]c32)cc1
inactive: [1] 98 % of control | [2] 93 % of control | [3] 104 % of control | [4] 93 % of control

CC(C)=C(c1ccc(Br)cc1)c1ccc(Br)cc1
inactive: dose: 100.0 mg/kg/injection, schedule: Q01DX009 (ip), vehicle: acetone 93 % of control | [5] 105 % of control | [6] 97 % of control | [7] 94 % of control

O=c1c2ccccc2nc(-c2ccccc2)n1/N=C/c1cccnc1
inactive: [8] 90 % of control | [9] 98 % of control | [10] 104 % of control

CC1C(=O)/C(=C/N(C)c2ccccc2)CC1C(=O)O (stereo unspecified)
inactive: dose: 100.0 mg/kg/injection, schedule: Q01DX001 (ip), vehicle: Klucel (hydroxypropylcellulose) (HPC) 93 % of control | [11] 100 % of control | dose: 200.0 mg/kg/injection, schedule: Q01DX001 (ip), vehicle: Klucel (hydroxypropylcellulose) (HPC) 93 % of control | [9] 97 % of control | dose: 200.0 mg/kg/injection, schedule: Q04DX003 (ip), vehicle: Klucel (hydroxypropylcellulose) (HPC) 98 % of control | dose: 400.0 mg/kg/injection, schedule: Q01DX001 (ip), vehicle: Klucel (hydroxypropylcellulose) (HPC) 87 % of control | [10] 97 % of control | dose: 400.0 mg/kg/injection, schedule: Q04DX003 (ip), vehicle: Klucel (hydroxypropylcellulose) (HPC) 98 % of control

CC1CCOC(=O)CCCCC1=O (stereo unspecified)
inactive: [2] 101 % of control | [3] 90 % of control | [4] 109 % of control

C[N+](C)(C)CCCC1C2CCC(C2)C1C#N (stereo unspecified)
inactive: dose: 3.13 mg/kg/injection, schedule: Q01DX009 (ip), vehicle: saline 101 % of control | dose: 6.25 mg/kg/injection, schedule: Q01DX009 (ip), vehicle: saline 97 % of control | dose: 12.5 mg/kg/injection, schedule: Q01DX009 (ip), vehicle: saline 98 % of control and 101 % of control | dose: 12.5 mg/kg/injection, schedule: Q04DX003 (ip), vehicle: saline 102 % of control | dose: 25.0 mg/kg/injection, schedule: Q04DX003 (ip), vehicle: saline 98 % of control | dose: 50.0 mg/kg/injection, schedule: Q04DX003 (ip), vehicle: saline 96 % of control

CC(O)C(F)(F)C(F)(F)C(F)(F)C(C)O (stereo unspecified)
inactive: dose: 100.0 mg/kg/injection, schedule: Q01DX009 (ip), vehicle: saline 97 % of control | dose: 100.0 mg/kg/injection, schedule: Q04DX003 (ip), vehicle: saline 102 % of control | dose: 200.0 mg/kg/injection, schedule: Q01DX009 (ip), vehicle: saline 104 % of control | dose: 200.0 mg/kg/injection, schedule: Q04DX003 (ip), vehicle: saline 96 % of control | dose: 400.0 mg/kg/injection, schedule: Q01DX009 (ip), vehicle: saline 109 % of control | dose: 400.0 mg/kg/injection, schedule: Q04DX003 (ip), vehicle: saline 96 % of control

O=C(c1ccc(F)cc1)c1ccc(Cl)cc1Cl
inactive: [5] 97 % of control | [6] 98 % of control | [7] 101 % of control

O=C(NCCCC1C2CCC(C2)C1CNC(=O)Nc1cccc(Cl)c1)Nc1cccc(Cl)c1 (stereo unspecified)
inactive: [5] 91 % of control | [6] 92 % of control | [7] 87 % of control

COC(=O)CC(Br)CBr (stereo unspecified)
inactive: dose: 100.0 mg/kg/injection, schedule: Q01DX001 (ip), vehicle: carboxymethylcellulose (CMC) 100 % of control | dose: 200.0 mg/kg/injection, schedule: Q01DX001 (ip), vehicle: carboxymethylcellulose (CMC) 100 % of control

CCCCn1cnc2c(SC)ncnc21
inactive: [1] 101 % of control | [2] 107 % of control | [3] 103 % of control

Cc1ccc([N+](=O)[O-])cc1N=Nc1ccc(O)c(C(=O)O)c1
inactive: dose: 25.0 mg/kg/injection, schedule: Q04DX003 (ip), vehicle: Klucel (hydroxypropylcellulose) (HPC) 93 % of control | dose: 50.0 mg/kg/injection, schedule: Q04DX003 (ip), vehicle: Klucel (hydroxypropylcellulose) (HPC) 96 % of control | [11] 96 % of control and 88 % of control

CCCCOc1ccc(OC(=O)Nc2cccc(C(C)=O)c2)cc1
inactive: [8] 108 % of control | [9] 96 % of control | [10] 96 % of control

S=C(NC1CCCCC1)NC1CC2C=CC1C2 (stereo unspecified)
inactive: dose: 100.0 mg/kg/injection, schedule: Q04DX002 (ip), vehicle: saline with Tween-80 90 % of control | dose: 200.0 mg/kg/injection, schedule: Q04DX002 (ip), vehicle: saline with Tween-80 93 % of control | dose: 400.0 mg/kg/injection, schedule: Q04DX002 (ip), vehicle: saline with Tween-80 93 % of control

O=[N+]([O-])c1ccc(S(=O)(=O)OCc2ccccc2OS(=O)(=O)c2ccc([N+](=O)[O-])cc2)cc1
inactive: dose: 25.0 mg/kg/injection, schedule: Q01DX009 (ip), vehicle: saline sonified 103 % of control | dose: 50.0 mg/kg/injection, schedule: Q01DX009 (ip), vehicle: saline sonified 95 % of control | dose: 100.0 mg/kg/injection, schedule: Q01DX009 (ip), vehicle: saline sonified 100 % of control | [11] 91 % of control
